The source of these data is patent US20240109917A1 (ACTELION PHARMACEUTICALS LTD, priority 2020, published 2024).

This assay has as its target His6-TEV-PDGFRβ (557-1016) (Homo sapiens (Human), UniProt P09619). Description: PDGFRβ HTRF Assay. It counts as biochemical. Particulars: read-out: PDGFR HTRF IC50. In outline:
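Human PDGFRβ (557-1016) pre-incubated with compound for 30 min at RT in pH 7.5 HEPES/MgCl2/EGTA/Brij-35/DTT buffer. Reaction started with ATP and TK-biotin peptide, run 3 h at RT, then quenched with EDTA-containing Eu-cryptate antibody/streptavidin-XL665. HTRF 665/620 nm ratio read after 60 min; percent inhibition relative to DMSO and 10 μM imatinib controls.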
In general terms: Time-resolved FRET reads energy transfer from a long-lived donor to a nearby acceptor.

The term IC50 denotes the concentration needed to halve the response being measured.

Chain of His6-TEV-PDGFRβ (557-1016) (P09619 557-1016): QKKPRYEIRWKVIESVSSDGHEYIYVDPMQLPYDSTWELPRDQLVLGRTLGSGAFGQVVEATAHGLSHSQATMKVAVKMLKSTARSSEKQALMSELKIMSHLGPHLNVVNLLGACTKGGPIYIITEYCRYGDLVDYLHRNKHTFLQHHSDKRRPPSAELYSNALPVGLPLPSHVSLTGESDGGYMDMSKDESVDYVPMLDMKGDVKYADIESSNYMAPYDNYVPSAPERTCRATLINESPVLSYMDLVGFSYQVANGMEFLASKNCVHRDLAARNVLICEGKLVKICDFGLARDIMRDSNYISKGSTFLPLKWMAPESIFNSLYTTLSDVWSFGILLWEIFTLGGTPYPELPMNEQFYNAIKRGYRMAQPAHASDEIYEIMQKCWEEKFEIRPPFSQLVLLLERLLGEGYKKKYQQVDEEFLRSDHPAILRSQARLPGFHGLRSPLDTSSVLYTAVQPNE

Regarding `CC(=O)Nc1cc(-c2cn3ncc(C(=O)Nc4cc(NC(=O)CN5CC(C)(C)C5)cnc4C)c3s2)ccn1` [Example 273, 2-(2-acetamidopyridin-4-yl)-N-(5-(2-(3,3-dimethylazetidin-1-yl)acetamido)-2-methylpyridin-3-yl)pyrazolo[5,1-b]thiazole-7-carboxamide], the 50% inhibitory concentration (IC50) was found to be 200 pM.

Turning to `CNC(=O)c1cc(-c2cn3ncc(C(=O)Nc4cc(NC(=O)CN5CC(C)(C)C5)cnc4C)c3s2)ccn1` [Example 274, N-(5-(2-(3,3-dimethylazetidin-1-yl)acetamido)-2-methylpyridin-3-yl)-2-(2-(methylcarbamoyl)pyridin-4-yl)pyrazolo[5,1-b]thiazole-7-carboxamide], the IC50 stood at 1000 pM.

For `Cc1ncc(NC(=O)CN2CC(C)(C)C2)cc1NC(=O)c1cnn2cc(-c3ccn(S(C)(=O)=O)c3)sc12` [Example 275, N-(5-(2-(3,3-dimethylazetidin-1-yl)acetamido)-2-methylpyridin-3-yl)-2-(1-(methylsulfonyl)-1H-pyrrol-3-yl)pyrazolo[5,1-b]thiazole-7-carboxamide], the IC50 worked out at 200 pM.

As to `CC(=O)Nc1cncc(-c2cn3ncc(C(=O)Nc4cc(NC(=O)CN5CC(C)(C)C5)cnc4C)c3s2)c1` [Example 277, 2-(5-acetamidopyridin-3-yl)-N-(5-(2-(3,3-dimethylazetidin-1-yl)acetamido)-2-methylpyridin-3-yl)pyrazolo[5,1-b]thiazole-7-carboxamide], the IC50 was determined as 400 pM.

Consider `Cc1ncc(NC(=O)CN2CC(C)(C)C2)cc1NC(=O)c1cnn2cc(-c3ccc(CO)s3)sc12` [Example 278, N-(5-(2-(3,3-dimethylazetidin-1-yl)acetamido)-2-methylpyridin-3-yl)-2-(5-(hydroxymethyl)thiophen-2-yl)pyrazolo[5,1-b]thiazole-7-carboxamide], for which the IC50 came out at 200 pM.

Take `CNC(=O)Cn1cc(-c2cn3ncc(C(=O)Nc4cc(NC(=O)CN5CC(C)(C)C5)cnc4C)c3s2)cn1` [Example 279, N-(5-(2-(3,3-dimethylazetidin-1-yl)acetamido)-2-methylpyridin-3-yl)-2-(1-(2-(methylamino)-2-oxoethyl)-1H-pyrazol-4-yl)pyrazolo[5,1-b]thiazole-7-carboxamide]: the IC50 turned out to be 400 pM.

Regarding `Cc1ncc(NC(=O)CN2CC(C)(C)C2)cc1NC(=O)c1cnn2cc(-c3cnn(C4CCS(=O)(=O)CC4)c3)sc12` [Example 280, N-(5-(2-(3,3-dimethylazetidin-1-yl)acetamido)-2-methylpyridin-3-yl)-2-(1-(1,1-dioxidotetrahydro-2H-thiopyran-4-yl)-1H-pyrazol-4-yl)pyrazolo[5,1-b]thiazole-7-carboxamide], the IC50 came out at 300 pM.

For the compound `Cc1ncc(NC(=O)CN2CC(C)(C)C2)cc1NC(=O)c1cnn2cc(-c3cnn(CC(C)O)c3)sc12` (centres unmarked) [Example 281, N-(5-(2-(3,3-dimethylazetidin-1-yl)acetamido)-2-methylpyridin-3-yl)-2-(1-(2-hydroxypropyl)-1H-pyrazol-4-yl)pyrazolo[5,1-b]thiazole-7-carboxamide], the IC50 turned out to be 400 pM.

For the compound `Cc1ncc(NC(=O)CN2CC(C)(C)C2)cc1NC(=O)c1cnn2cc(-c3ccsc3)sc12` [Example 282, N-(5-(2-(3,3-dimethylazetidin-1-yl)acetamido)-2-methylpyridin-3-yl)-2-(thiophen-3-yl)pyrazolo[5,1-b]thiazole-7-carboxamide], the concentration for half-maximal inhibition (IC50) turned out to be 100 pM.

For `Cc1ncc(NC(=O)CN2CC(C)(C)C2)cc1NC(=O)c1cnn2cc(-c3ccoc3)sc12` [Example 283, N-(5-(2-(3,3-dimethylazetidin-1-yl)acetamido)-2-methylpyridin-3-yl)-2-(furan-3-yl)pyrazolo[5,1-b]thiazole-7-carboxamide], the IC50 amounted to 100 pM.

`Cc1ncc(NC(=O)CN2CC(C)(C)C2)cc1NC(=O)c1cnn2cc(-c3ccnc(N4CCOCC4)c3)sc12` [Example 284, N-(5-(2-(3,3-dimethylazetidin-1-yl)acetamido)-2-methylpyridin-3-yl)-2-(2-morpholinopyridin-4-yl)pyrazolo[5,1-b]thiazole-7-carboxamide]: the IC50 is 200 pM.

With `Cc1ncc(NC(=O)CN2CC(C)(C)C2)cc1NC(=O)c1cnn2cc(-c3cc[nH]c3)sc12` [Example 285, N-(5-(2-(3,3-dimethylazetidin-1-yl)acetamido)-2-methylpyridin-3-yl)-2-(1H-pyrrol-3-yl)pyrazolo[5,1-b]thiazole-7-carboxamide], the IC50 worked out at 100 pM.

For the compound `Cc1ncc(NC(=O)CN2CC(C)(C)C2)cc1NC(=O)c1cnn2cc(-c3cccc4c3cnn4C)sc12` [Example 286, N-(5-(2-(3,3-dimethylazetidin-1-yl)acetamido)-2-methylpyridin-3-yl)-2-(1-methyl-1H-indazol-4-yl)pyrazolo[5,1-b]thiazole-7-carboxamide], the half-maximal inhibitory concentration (IC50) was found to be 100 pM.

For the compound `Cc1ncc(NC(=O)CN2CC(C)(C)C2)cc1NC(=O)c1cnn2cc(-c3c[nH]c4ccccc34)sc12` [Example 287, N-(5-(2-(3,3-dimethylazetidin-1-yl)acetamido)-2-methylpyridin-3-yl)-2-(1H-indol-3-yl)pyrazolo[5,1-b]thiazole-7-carboxamide], the IC50 is 100 pM.

For the compound `Cc1ncc(NC(=O)CN2CC(C)(C)C2)cc1NC(=O)c1cnn2cc(-c3cnc4[nH]ncc4c3)sc12` [Example 288, N-(5-(2-(3,3-dimethylazetidin-1-yl)acetamido)-2-methylpyridin-3-yl)-2-(1H-pyrazolo[3,4-b]pyridin-5-yl)pyrazolo[5,1-b]thiazole-7-carboxamide], the IC50 turned out to be 400 pM.

Turning to `Cc1ncc(NC(=O)CN2CC(C)(C)C2)cc1NC(=O)c1cnn2cc(-c3cnn(-c4cccnc4)c3)sc12` [Example 289, N-(5-(2-(3,3-dimethylazetidin-1-yl)acetamido)-2-methylpyridin-3-yl)-2-(1-(pyridin-3-yl)-1H-pyrazol-4-yl)pyrazolo[5,1-b]thiazole-7-carboxamide], the IC50 turned out to be 300 pM.

In the case of `Cc1ncc(NC(=O)CN2CC(C)(C)C2)cc1NC(=O)c1cnn2cc(-c3cnn(CCO)c3)sc12` [Example 290, N-(5-(2-(3,3-dimethylazetidin-1-yl)acetamido)-2-methylpyridin-3-yl)-2-(1-(2-hydroxyethyl)-1H-pyrazol-4-yl)pyrazolo[5,1-b]thiazole-7-carboxamide], the IC50 came out at 400 pM.

As to `Cc1ncc(NC(=O)CN2CC(C)(C)C2)cc1NC(=O)c1cnn2cc(-c3ccc(CO)o3)sc12` [Example 292, N-(5-(2-(3,3-dimethylazetidin-1-yl)acetamido)-2-methylpyridin-3-yl)-2-(5-(hydroxymethyl)furan-2-yl)pyrazolo[5,1-b]thiazole-7-carboxamide], the IC50 came out at 300 pM.

For `Cc1ncc(NC(=O)CN2CC(C)(C)C2)cc1NC(=O)c1cnn2cc(-c3cnn(C4CCNCC4)c3)sc12` [Example 293, N-(5-(2-(3,3-dimethylazetidin-1-yl)acetamido)-2-methylpyridin-3-yl)-2-(1-(piperidin-4-yl)-1H-pyrazol-4-yl)pyrazolo[5,1-b]thiazole-7-carboxamide], the IC50 amounted to 400 pM.

Take `Cc1ncc(NC(=O)CN(C)C2CCOCC2)cc1NC(=O)c1cnn2cc(-c3cnn(C4CC4)c3)sc12` [Example 294, 2-(1-cyclopropyl-1H-pyrazol-4-yl)-N-(2-methyl-5-(2-(methyl(tetrahydro-2H-pyran-4-yl)amino)acetamido)pyridin-3-yl)pyrazolo[5,1-b]thiazole-7-carboxamide]: the IC50 turned out to be 300 pM.

In the case of `Cc1ncc(NC(=O)CN(C)C2CCOCC2)cc1NC(=O)c1cnn2cc(-c3cnn(C(F)F)c3)sc12` [Example 295, 2-(1-(difluoromethyl)-1H-pyrazol-4-yl)-N-(2-methyl-5-(2-(methyl(tetrahydro-2H-pyran-4-yl)amino)acetamido)pyridin-3-yl)pyrazolo[5,1-b]thiazole-7-carboxamide], the half-maximal inhibitory concentration (IC50) was found to be 700 pM.

In the case of `Cc1ncc(NC(=O)CN(C)C2CCOCC2)cc1NC(=O)c1cnn2cc(-c3cnn(C4CCC4)c3)sc12` [Example 296, 2-(1-cyclobutyl-1H-pyrazol-4-yl)-N-(2-methyl-5-(2-(methyl(tetrahydro-2H-pyran-4-yl)amino)acetamido)pyridin-3-yl)pyrazolo[5,1-b]thiazole-7-carboxamide], the IC50 is 300 pM.

With `Cc1ncc(NC(=O)CN(C)C2CCOCC2)cc1NC(=O)c1cnn2cc(-c3cnn(C(C)C#N)c3)sc12` (centres unmarked) [Example 297, 2-(1-(1-cyanoethyl)-1H-pyrazol-4-yl)-N-(2-methyl-5-(2-(methyl(tetrahydro-2H-pyran-4-yl)amino)acetamido)pyridin-3-yl)pyrazolo[5,1-b]thiazole-7-carboxamide], the IC50 turned out to be 700 pM.

Consider `Cc1ncc(NC(=O)CN(C)C2CCOCC2)cc1NC(=O)c1cnn2cc(-c3cnn(CS(C)(=O)=O)c3)sc12` [Example 298, N-(2-methyl-5-(2-(methyl(tetrahydro-2H-pyran-4-yl)amino)acetamido)pyridin-3-yl)-2-(1-((methylsulfonyl)methyl)-1H-pyrazol-4-yl)pyrazolo[5,1-b]thiazole-7-carboxamide], for which the IC50 came to 900 pM.

As for `Cc1ncc(NC(=O)CN(C)C2CCOCC2)cc1NC(=O)c1cnn2cc(-c3cnn(CC#N)c3)sc12` [Example 299, 2-(1-(cyanomethyl)-1H-pyrazol-4-yl)-N-(2-methyl-5-(2-(methyl(tetrahydro-2H-pyran-4-yl)amino)acetamido)pyridin-3-yl)pyrazolo[5,1-b]thiazole-7-carboxamide], the IC50 is 500 pM.

`Cc1ncc(NC(=O)CN(C)C2CCOCC2)cc1NC(=O)c1cnn2cc(-c3cnn(CC(N)=O)c3)sc12` [Example 300, 2-(1-(2-amino-2-oxoethyl)-1H-pyrazol-4-yl)-N-(2-methyl-5-(2-(methyl(tetrahydro-2H-pyran-4-yl)amino)acetamido)pyridin-3-yl)pyrazolo[5,1-b]thiazole-7-carboxamide]: the IC50 turned out to be 1200 pM.
